The values that follow come from US10308662B2, “Thienopyranones as kinase and epigenetic inhibitors” (SignalRx Pharmaceuticals, Inc., priority 2014, dated 2019).

SMILES strings stand for the structures.

For test [1], the system named is pAKT serine 473 in PC3 cells. Kind of test: Cellular PI3K inhibition, pAKT ELISA in PC3 cells. The class given is cell-based. The conditions noted are these: Homo sapiens, PC-3; IGF-1 stimulated PC3 cells. As for the experimental part:
Biological testing of compounds of Formula I. Representative compounds of the invention were tested for cellular PI3K inhibitory activity (as measured by the most robust marker of pathway activity pAKT) in a prostate cancer cell line (PC3), which is summarized in Table 3. […] Two million cells from the prostate cancer line PC3 were placed into 6 cm culture dishes and allowed to grow in complete RPMI 1640 media (Invitrogen, Carlsbad, Calif., Cat.#22400-105) with 10% fetal bovine serum (Invitrogen, Carlsbad, Calif., Cat.#10438-026). After this time period the cells were serum starved for 5 hours followed by application of the test compound. Test compound was added as a DMSO (dimethyl sulfoxide) solution such that the final DMSO concentration in the cell media was less than or equal to 0.2% by volume. After 30 minutes of exposure the growth factor stimulant, human IGF-1 (PeproTech, Inc., Rocky Hill, N.J., Cat.#100-11), was added in each well. After 30 minutes of IGF-1 exposure, cells were removed from the media and cell lysates were prepared using RIPA Lysis buffer (Upstate, Lake Placid, N.Y., Cat.#20-188), keeping on ice. The pAKT serine 473 level was measured in duplicate samples of the cell lysates using commercially available assays such as the Pathscan® Sandwich ELISA kit for Ser473 pAKT (Cell Signaling, Danvers, Mass., Cat.#7160). A SpectraMax Plus spectrophotometric plate reader (Molecular Devices, Sunnydale, Calif.) was used to measure the optical density signal for pAKT at 450 nm (OD450 nm). The pAKT OD450 nm readings were normalized by total protein amount in the cell lysates determined by standard methods.

The target of test [2] is BRD4-1 (Homo sapiens (Human), UniProt O60885). Particulars: cited from earlier work.
Test [3] concerns p-AKT(Ser473). Kind of test: Western blot of pAKT in SKNBE(2) cells. Type of test: cell-based, human. The conditions noted are these: 24 hrs treatment, 50 ng/ml IGF stimulation. The procedure: (§1) Cells were stimulated with 50 ng/ml IGF for 30 min and used for lysate preparation. Proteins were quantitated by the BCA protein assay (Pierce). Equal amounts of protein were resolved by polyacrylamide gels, transferred to nitrocellulose membrane and probed by Western blot with the following primary antibodies: p-AKT(Ser473), AKT (Cell Signaling Technologies), N-MYC, CyclinD1 and β-actin (Santa Cruz Biotechnology).

Test [4] concerns the target BRD4 (Homo sapiens, UniProt O60885). As to the kind of experiment: BRD4 inhibition assay (region not specified). Type of test: binding.
Protocol: The activity of a compound of the invention as an inhibitor of a bromodomain-containing protein, such as a BET protein, such as BRD2, BRD3, BRD4, and/or BRDT, or an isoform or mutant thereof, may be determined in vitro, in vivo, or in a cell line. In vitro assays include assays that determine inhibition of bromodomain-containing proteins. Alternatively, inhibitor binding may be determined by running a competition experiment where a provided compound is incubated with a bromodomain-containing protein, such as a BET protein bound to known ligands, labeled or unlabeled. For example, bromodomain inhibition can be determined in vitro using Alpha Screen Technology (http://www.reactionbiology.com/webapps/site/NewsPDFs/Bromodomain%20Assay%20Platform%20for%20Drug%20Screening%20and%20Discovery.pdf). […] Bromodomain inhibition may also be predicted by in silico modeling as described below in the Examples.
Computational modeling was performed using the commercially available FlexX (http://www.biosolveit.de/FlexX/download/flexx_brochure.pdf) software tools. […] It should be noted that the more negative the number or value of the docking score is, the stronger is the predicted binding energy at the BRD4 site that recognizes the acetyl lysine of chromatin.
Test [5] has as its system MYCN promoter region. As to the kind of experiment: Brd4 chromatin precipitation with quantitative PCR of MYCN promoter in SKNBE(2) cells. The conditions noted are these: 24 hours exposure. The class given is cell-based, human. As for the experimental part: MYCN amplified SKNBE(2) cells were exposed to inhibitors for 24 hours then chromatin was precipitated with Brd4 (rabbit polyclonal antibody) along with rabbit IgG as a negative control (IgG). Precipitated chromatin was analyzed for the MYCN gene (2 sites within the MYCN promoter region) by quantitative PCR and enrichment is shown as the percentage of total input DNA (FIG. 4). The negative control region primers amplify within a gene desert region approximately 1 Mb away from MYCN (MYC-N NR). Error bars represent±SEM of triplicate data. P<0.05 as compared to positive control (paired t-test).

In test [6] the test system is N-MYC. As to the kind of experiment: Western blot of N-MYC in SKNBE(2) cells. Particulars: 24 hrs treatment, 50 ng/ml IGF stimulation. Type of test: cell-based, human. The procedure: as §1
On the technique in general: A western blot detects proteins with antibodies after separation by electrophoresis.

The test system of test [7] is BET bromodomains. The conditions noted are these: cited from earlier work.
In test [8] the test system is breast cancer stem cells. Particulars: women with breast tumors with high HER2; decreased from 11%; cited from earlier work.
Test [9] addresses PI3Kα (Homo sapiens (Human), UniProt P42336). Kind of test: PI3K alpha isoform inhibition. The class given is biochemical. The conditions noted are these: 300 nM.
Test [10] concerns the target PI3Kδ (Homo sapiens (Human), UniProt O00329). Kind of test: PI3K delta isoform inhibition. Type of test: biochemical. The conditions noted are these: 300 nM. From the text:
Inhibitory activity can be determined routinely using known methods and also from commercial vendors offering this service for kinases and bromodomain proteins. […] In vivo, PI3K inhibition can be determined from target tissue biopsies by standard tissue processing to disrupt cells and then performing Western Blot analysis to determine the presence or absence of pAKT (substrate of PI3K) relative to a control sample. The activity of a compound of the invention as an inhibitor of a bromodomain-containing protein, such as a BET protein, such as BRD2, BRD3, BRD4, and/or BRDT, or an isoform or mutant thereof, may be determined in vitro, in vivo, or in a cell line. In vitro assays include assays that determine inhibition of bromodomain-containing proteins. Alternatively, inhibitor binding may be determined by running a competition experiment where a provided compound is incubated with a bromodomain-containing protein, such as a BET protein bound to known ligands, labeled or unlabeled. For example, bromodomain inhibition can be determined in vitro using Alpha Screen Technology (http://www.reactionbiology.com/webapps/site/NewsPDFs/Bromodomain%20Assay%20Platform%20for%20Drug%20Screening%20and%20Discovery.pdf). […]

Test [11] concerns the target PI3Kγ (Homo sapiens (Human), UniProt P48736). Kind of test: PI3K gamma isoform inhibition. Particulars: 300 nM. Type of test: biochemical.
Test [12] deals with HDAC. As to the kind of experiment: HDAC inhibitory activity, commercial kit. Type of test: biochemical. Particulars: for HDAC inhibitory activity: 1, 10, 50 μM.
The subject of test [13] is PI-3 kinases. The conditions noted are these: cited from earlier work.

PI3Kδ, sequence (O00329 whole entry, canonical isoform): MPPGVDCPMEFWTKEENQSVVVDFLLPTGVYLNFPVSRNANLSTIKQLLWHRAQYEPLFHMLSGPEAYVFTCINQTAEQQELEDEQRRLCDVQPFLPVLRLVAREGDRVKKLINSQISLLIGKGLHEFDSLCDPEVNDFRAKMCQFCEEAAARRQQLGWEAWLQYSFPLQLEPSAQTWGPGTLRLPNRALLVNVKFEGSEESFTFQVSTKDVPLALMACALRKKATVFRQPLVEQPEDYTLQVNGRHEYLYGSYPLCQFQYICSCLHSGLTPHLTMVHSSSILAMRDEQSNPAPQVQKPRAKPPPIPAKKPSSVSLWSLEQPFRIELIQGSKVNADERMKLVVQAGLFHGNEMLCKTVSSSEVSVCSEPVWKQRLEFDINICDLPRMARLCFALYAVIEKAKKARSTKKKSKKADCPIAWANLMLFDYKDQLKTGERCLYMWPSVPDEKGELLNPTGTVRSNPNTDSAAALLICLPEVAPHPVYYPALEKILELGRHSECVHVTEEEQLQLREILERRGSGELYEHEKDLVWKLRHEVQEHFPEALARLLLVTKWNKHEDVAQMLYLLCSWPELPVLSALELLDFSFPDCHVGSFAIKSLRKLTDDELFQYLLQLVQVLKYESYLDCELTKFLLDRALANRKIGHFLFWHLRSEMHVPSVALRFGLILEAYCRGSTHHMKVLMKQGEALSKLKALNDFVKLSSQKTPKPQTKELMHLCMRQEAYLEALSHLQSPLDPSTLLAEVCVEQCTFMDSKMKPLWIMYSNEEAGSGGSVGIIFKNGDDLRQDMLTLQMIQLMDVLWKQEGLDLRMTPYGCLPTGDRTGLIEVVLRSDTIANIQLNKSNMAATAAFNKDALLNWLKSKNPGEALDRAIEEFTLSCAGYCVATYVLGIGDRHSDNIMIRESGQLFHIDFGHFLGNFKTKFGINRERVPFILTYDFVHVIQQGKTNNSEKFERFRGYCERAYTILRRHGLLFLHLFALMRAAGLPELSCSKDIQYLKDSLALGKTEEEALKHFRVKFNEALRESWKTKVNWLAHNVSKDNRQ
PI3Kδ, sequence (P27986 whole entry partner, canonical isoform): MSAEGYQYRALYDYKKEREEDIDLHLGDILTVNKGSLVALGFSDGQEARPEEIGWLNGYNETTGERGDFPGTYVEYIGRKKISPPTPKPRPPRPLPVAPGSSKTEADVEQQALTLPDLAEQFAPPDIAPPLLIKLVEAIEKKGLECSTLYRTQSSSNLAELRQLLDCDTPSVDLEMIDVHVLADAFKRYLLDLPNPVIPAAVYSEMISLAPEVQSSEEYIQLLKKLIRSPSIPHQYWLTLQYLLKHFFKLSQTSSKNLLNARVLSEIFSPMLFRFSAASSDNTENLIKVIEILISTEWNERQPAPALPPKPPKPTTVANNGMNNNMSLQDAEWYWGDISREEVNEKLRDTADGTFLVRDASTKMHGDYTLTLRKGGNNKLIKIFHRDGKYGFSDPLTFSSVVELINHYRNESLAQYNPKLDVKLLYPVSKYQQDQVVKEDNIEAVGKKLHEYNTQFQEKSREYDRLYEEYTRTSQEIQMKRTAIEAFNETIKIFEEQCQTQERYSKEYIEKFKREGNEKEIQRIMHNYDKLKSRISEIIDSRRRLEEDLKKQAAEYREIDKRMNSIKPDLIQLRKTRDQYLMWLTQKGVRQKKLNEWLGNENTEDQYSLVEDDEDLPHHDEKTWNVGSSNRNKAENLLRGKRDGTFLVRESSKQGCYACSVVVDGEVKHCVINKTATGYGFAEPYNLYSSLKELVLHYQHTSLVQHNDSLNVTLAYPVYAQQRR
PI3Kγ, sequence (P48736 whole entry, canonical isoform): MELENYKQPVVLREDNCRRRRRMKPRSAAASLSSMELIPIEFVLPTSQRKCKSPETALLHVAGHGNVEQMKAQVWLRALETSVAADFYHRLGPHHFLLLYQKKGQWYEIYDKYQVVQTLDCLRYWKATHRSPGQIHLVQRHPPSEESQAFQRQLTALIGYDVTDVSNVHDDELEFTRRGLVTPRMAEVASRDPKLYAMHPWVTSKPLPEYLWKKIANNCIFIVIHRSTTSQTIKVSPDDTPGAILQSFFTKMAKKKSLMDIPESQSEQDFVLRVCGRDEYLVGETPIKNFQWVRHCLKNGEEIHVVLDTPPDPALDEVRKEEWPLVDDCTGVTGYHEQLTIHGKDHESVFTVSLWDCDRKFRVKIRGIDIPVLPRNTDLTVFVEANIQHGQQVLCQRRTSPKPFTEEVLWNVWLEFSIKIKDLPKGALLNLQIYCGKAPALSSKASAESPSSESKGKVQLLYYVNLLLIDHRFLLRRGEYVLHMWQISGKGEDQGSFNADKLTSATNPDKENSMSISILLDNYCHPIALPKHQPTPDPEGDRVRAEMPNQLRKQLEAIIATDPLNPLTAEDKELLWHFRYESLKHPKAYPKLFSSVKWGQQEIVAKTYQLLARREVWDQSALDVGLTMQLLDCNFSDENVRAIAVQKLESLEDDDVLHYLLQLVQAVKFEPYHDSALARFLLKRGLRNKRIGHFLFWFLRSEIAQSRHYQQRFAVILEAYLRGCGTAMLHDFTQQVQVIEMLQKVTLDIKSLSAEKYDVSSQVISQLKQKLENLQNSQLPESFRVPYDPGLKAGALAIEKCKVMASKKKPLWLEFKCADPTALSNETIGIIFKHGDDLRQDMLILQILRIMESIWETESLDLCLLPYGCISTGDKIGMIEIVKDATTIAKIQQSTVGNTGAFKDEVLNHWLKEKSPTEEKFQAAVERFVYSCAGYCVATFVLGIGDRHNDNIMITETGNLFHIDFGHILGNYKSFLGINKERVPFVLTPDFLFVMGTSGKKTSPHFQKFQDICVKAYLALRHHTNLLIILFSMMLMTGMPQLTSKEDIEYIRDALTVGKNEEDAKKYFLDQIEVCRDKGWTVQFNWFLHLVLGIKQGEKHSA
PI3Kα, sequence (P42336 whole entry, canonical isoform): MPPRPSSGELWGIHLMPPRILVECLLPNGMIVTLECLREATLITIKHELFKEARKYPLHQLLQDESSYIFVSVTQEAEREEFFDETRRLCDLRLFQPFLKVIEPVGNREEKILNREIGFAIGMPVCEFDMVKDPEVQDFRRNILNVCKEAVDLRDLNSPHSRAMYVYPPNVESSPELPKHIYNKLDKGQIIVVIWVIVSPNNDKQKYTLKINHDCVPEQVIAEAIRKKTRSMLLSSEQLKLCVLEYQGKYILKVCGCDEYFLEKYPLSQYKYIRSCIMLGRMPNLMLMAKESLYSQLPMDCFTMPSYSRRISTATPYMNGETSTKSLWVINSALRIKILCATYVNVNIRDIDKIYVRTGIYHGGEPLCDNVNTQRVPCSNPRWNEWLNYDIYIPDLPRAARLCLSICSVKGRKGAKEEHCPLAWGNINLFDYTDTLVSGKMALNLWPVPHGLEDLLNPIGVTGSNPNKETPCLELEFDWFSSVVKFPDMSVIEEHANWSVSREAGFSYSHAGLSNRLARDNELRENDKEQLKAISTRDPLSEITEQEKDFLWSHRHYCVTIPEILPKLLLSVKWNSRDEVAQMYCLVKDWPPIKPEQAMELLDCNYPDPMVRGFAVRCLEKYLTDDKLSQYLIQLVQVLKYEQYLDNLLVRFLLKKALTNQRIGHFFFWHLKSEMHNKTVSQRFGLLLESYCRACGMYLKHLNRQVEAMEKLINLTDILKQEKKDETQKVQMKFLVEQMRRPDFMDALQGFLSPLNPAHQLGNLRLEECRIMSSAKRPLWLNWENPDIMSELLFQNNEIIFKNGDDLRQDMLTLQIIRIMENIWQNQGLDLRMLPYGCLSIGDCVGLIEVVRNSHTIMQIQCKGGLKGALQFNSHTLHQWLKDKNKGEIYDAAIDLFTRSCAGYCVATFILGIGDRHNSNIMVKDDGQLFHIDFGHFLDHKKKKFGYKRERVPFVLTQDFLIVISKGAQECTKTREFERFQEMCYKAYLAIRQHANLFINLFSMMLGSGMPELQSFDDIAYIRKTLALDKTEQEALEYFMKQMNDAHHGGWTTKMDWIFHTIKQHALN
PI3Kα, sequence (P27986 whole entry partner, canonical isoform): as the sequence (P27986 whole entry partner, canonical isoform) above

Take `O=c1cc(N2CCOCC2)oc2c(-c3ccc4c(c3)OCO4)csc12` [Cmpd 7]: in test [1], the IC50 (as a rule, the concentration that gives 50% inhibition) came out at 540 nM.

In [1], `O=c1cc(N2CCOCC2)oc2c(-c3ccsc3)csc12` [Cmpd 26] had an IC50 of 1560 nM. On to `Cc1cnc(Nc2ccc(N3CCN(C)CC3)cc2)nc1Nc1cccc(S(=O)(=O)NC(C)(C)C)c1` [TG101209], for which the BRD4-1 inhibition result in test [2] is reported as “potently inhibit”. Compound `O=c1cc(N2CCOCC2)oc2c(Cc3ccccc3)csc12` [Cmpd 1] gave an IC50 in test [1] of 864 nM. Regarding `Cn1c(=O)n(-c2ccc(C(C)(C)C#N)cc2)c2c3cc(-c4cnc5ccccc5c4)ccc3ncc21` [BEZ235], the “pAKT level by Western blot” value in [3] is listed as “decreased pAKT”.

As for `CN1CCOc2cc(-c3csc4c(=O)cc(N5CCOCC5)oc34)ccc21` [Cmpd 22], in test [1], it took 609 nM to reach half-maximal inhibition (IC50). On the same count and under the same terms, under `O=c1cc(N2CCOCC2)oc2c(-c3ccoc3)csc12` [Cmpd 27] stands 3240 nM; under `CN(C)c1ccc(-c2csc3c(=O)cc(N4CCOCC4)oc23)cc1` [Cmpd 9], 780 nM. As for `Cc1c(Cn2c(C)nc3c(C(=O)O)cc(N4CCOCC4)cc32)cccc1C(F)(F)F` [GSK2636771], the BRD4-1 inhibition result in test [2] is on record as “some degree of BRD4-1 inhibitory activity”. `O=c1cc(N2CCOCC2)oc2c(-c3cc4ccccc4[nH]3)csc12` [Cmpd 12] showed an IC50 in test [1] of 1570 nM. The compound `N#Cc1ccc(-c2csc3c(=O)cc(N4CCOCC4)oc23)cc1` [Cmpd 5] had an IC50 in test [1] of 7300 nM. With `O=c1cc(N2CCOCC2)oc2c(-c3ccncc3)csc12` [Cmpd 2], the midpoint of inhibition in test [1], the IC50, lay at 3030 nM. `CN(c1ccccc1CNc1nc(Nc2ccc3c(c2)CC(=O)N3)ncc1C(F)(F)F)S(C)(=O)=O` [PF-431396]: the BRD4-1 inhibition result in test [2] was “some degree of BRD4-1 inhibitory activity”. Consider `O=c1cc(N2CCOCC2)oc2c(-c3cccnc3)csc12` [Cmpd 3], for which half-maximal inhibition in test [1] (IC50) required 4870 nM. On the same count and under the same terms, under `COC(=O)c1scc(-c2csc3c(=O)cc(N4CCOCC4)oc23)c1O` [Cmpd 21] stands 1040 nM. On to `CC[C@H](Nc1ncnc2[nH]cnc12)c1nc2cccc(F)c2c(=O)n1-c1ccccc1` [CAL101], for which, in test [4], the BRD4 inhibition entry was “no BRD4 inhibition”. In addition, the “pAKT level by Western blot” value in [3] was “decreased pAKT”. For the same compound, the “MYCN expression (Brd4-precipitated chromatin, MYCN promoter PCR)” value (shortened to “MYCN expression”) in [5] is “did not”. On to `Nc1cccc(-c2csc3c(=O)cc(N4CCOCC4)oc23)c1` [Cmpd 11, 3-(3-Amino-phenyl)-5-morpholin-4-yl-thieno[3,2-b]pyran-7-one], for which, in test [1], the IC50 worked out at 6320 nM.

In the case of `Cc1ccc(-c2csc3c(=O)cc(N4CCOCC4)oc23)cc1` [Cmpd 15], in test [1], half-maximal inhibition (IC50) required 948 nM.

`O=c1cc(N2CCOCC2)oc2c(-c3ccc4[nH]ccc4c3)csc12` [Cmpd 19] had an IC50 in test [1] of 901 nM. For `Nc1cc(C(F)(F)F)c(-c2cc(N3CCOCC3)nc(N3CCOCC3)n2)cn1` [BKM120, reference compound], in [4], the BRD4 inhibition entry is “no BRD4 inhibition”. The “pAKT level by Western blot” value in [3] was “decreased pAKT”. As for `O=c1cc(N2CCOCC2)oc2c(-c3ccco3)csc12` [Cmpd 4], the IC50 in [1] is 930 nM. On the same count and under the same terms, the result for `COc1cccc(-c2csc3c(=O)cc(N4CCOCC4)oc23)c1` [Cmpd 29] reads 1070 nM. For the compound `O=c1cc(N2CCOCC2)oc2c(-c3ccccc3)cccc12` [LY294002, 2-(4-morpholinyl)-8-phenyl-4H-1-benzopyran-4-one], the “pAKT level by Western blot” value in [3] is “decreased MYCN and pAKT”. Also, the “MYCN quantity by Western blot” value in test [6] is recorded as “decreased MYCN”. In addition, the “MYCN expression” value in [5] was “significantly repressed MYCN expression”. Also, the BET bromodomain inhibition result in [7] is “modestly inhibit”. For the compound `O=c1cc(N2CCOCC2)oc2c(-c3ccccc3)csc12` [Cmpd 6], the IC50 in test [1] stood at 550 nM. Still for that read-out and setting: under `COc1ccc(-c2csc3c(=O)cc(N4CCOCC4)oc23)cc1` [Cmpd 8] stands 980 nM. The same measure, in the same setting: the result for `O=c1cc(N2CCOCC2)oc2c(-c3ccc(Cl)cc3)csc12` [Cmpd 17] reads 1410 nM. `CS(=O)(=O)CCNCc1ccc(-c2ccc3ncnc(Nc4ccc(OCc5cccc(F)c5)c(Cl)c4)c3c2)o1` [Lapatinib]: the “breast cancer stem cells in biopsies after treatment” value in test [8] is given as 5 % of cells.

As for `O=C(NO)c1ccc(-c2csc3c(=O)cc(N4CCOCC4)oc23)cc1` [Cmpd 118], the inhibition (commonly the share of the control response that was lost under treatment) at 0.3 µM in test [9] was determined as 76%; in test [10], 80%; in test [11] it was 30%. Moreover, the “HDAC activity inhibition versus control” value in [12] (1 μM) was 17%; in test [12] (10 μM), 25%; in test [12] (50 μM) it was 41%. For the same compound, the HDAC inhibitory activity result in [12] is on record as “significant HDAC inhibitory activity”.

`Cc1cccc(-c2csc3c(=O)cc(N4CCOCC4)oc23)c1` [Cmpd 16]: in test [1], the IC50 worked out at 1230 nM. Same read-out and setting: the result for `O=c1cc(N2CCOCC2)oc2c(-c3ccc(Cl)c(Cl)c3)csc12` [Cmpd 18] reads 913 nM. For the compound `O=c1cc(N2CCNCC2)oc2c(-c3ccccc3)cccc12` [LY303511], the “MYCN quantity by Western blot” value in [6] is “inhibited only MYCN quantities”. Besides, in test [5], the “MYCN expression” value was “significantly repressed MYCN expression”. For the same compound, in test [13], the PI3K inhibition activity result is listed as “lose PI3K inhibition activity”. Further, the BET bromodomain inhibition entry in test [7] is “retain BET bromodomain inhibition”. In the case of `CC(C)n1nc(-c2cc3cc(O)ccc3[nH]2)c2c(N)ncnc21` [PP-242], in [2], the BRD4-1 inhibition entry is reported as “some degree of BRD4-1 inhibitory activity”. Take `COC(=O)c1ccc(-c2csc3c(=O)cc(N4CCOCC4)oc23)cc1` [Cmpd 44, Methyl 4-(5-morpholino-7-oxo-7H-thieno[3,2-b]pyran-3-yl)benzoate]: the inhibition at 0.3 µM in test [9] was 53%; in test [10] it was 81%; in [11] it was 26%. In addition, in test [4], the BRD4 inhibition result is “showed activity against BRD4 regions 1 and 2”. In addition, in test [12], the HDAC inhibitory activity result is on record as “No inhibitor activity”. For the compound `O=c1cc(N2CCOCC2)oc2c(-c3cccs3)csc12` [Cmpd 14], half-maximal inhibition in test [1] (IC50) was put at 1020 nM.

In the case of `Cc1cnc(Nc2ccc(OCCN3CCCC3)cc2)nc1Nc1cccc(S(=O)(=O)NC(C)(C)C)c1` [TG-101348], in test [2], the BRD4-1 inhibition result was “some degree of BRD4-1 inhibitory activity”.

As for `O=c1cc(N2CCOCC2)oc2c(C#CCO)csc12` [Cmpd 24], the half-inhibitory concentration (IC50) in test [1] was found to be 4610 nM. Same read-out and setting: the result for `O=c1cc(N2CCOCC2)oc2c(C#Cc3ccsc3)csc12` [Cmpd 23] reads 1270 nM.
